Earlier results on 3 compounds are cited in patent publication US20070167517A1, “Stabilized derivatives of ascorbic aicd” (Tagra Biotechnologies Ltd., priority 2003, published 2007).

Molecules are shown by their SMILES.

The conditions of data set [1]: in the human.
The conditions of data set [2]: standard solutions and topical formulations, RP-HPLC.

In the case of `O=C1O[C@H]([C@@H](O)CO)C(O)=C1O` [ascorbic acid], in data set [1], the half-life result is listed as “about 20 days”.

Consider `CCCCCCCCCCCCCCCC(=O)OC[C@H](O)[C@H]1OC(=O)C(O)=C1O` [ascorbyl palmitate, 6-ascorbyl palmitate], for which the stability entry in data set [2] is listed as “did not prevent hydrolysis of the molecule”.

`O=C1O[C@H]([C@@H](O)CO)C(O)=C1OP(=O)([O-])[O-].[Mg+2]` [magnesium ascorbyl phosphate, magnesium L-ascorbic acid-2-phosphate]: the stability result in data set [2] is listed as “very stable”.
